Assay in all cases: NCI-60 cell line screen, 48 h
Experiment [1] deals with ACHN.
The test system of experiment [2] is IGROV-1.
In experiment [3] the test system is KM12.
Experiment [4] relates to LOX IMVI.
The subject of experiment [5] is MOLT-4.
The subject of experiment [6] is NCI-H23.
In experiment [7] the test system is OVCAR-8.
In experiment [8] the test system is SF-539.
Experiment [9] concerns SN12C.
Experiment [10] has as its system SW-620.
Experiment [11] relates to TK-10.
Experiment [12] deals with UACC-257.
In experiment [13] the test system is UACC-62.
For experiment [14], the system named is UO-31.
For experiment [15], the system named is HCT-116.
The subject of experiment [16] is HCT-15.
The test system of experiment [17] is SF-295.
Experiment [18] has as its system SK-MEL-5.
Experiment [19] relates to CAKI-1.

SMILES strings stand for the structures.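 A five-concentration, 48-hour dose response in 96-well plates underlies each endpoint, interpolated linearly between surrounding concentrations. GI50 = concentration required for 50% inhibition of growth.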 Active and inactive are the calls of the source. Rule as the data show it: active = GI50 up to about 1.1 µM and inactive = higher. Bounds are passed on as bounds.

Regarding `COc1ccc2nc(-c3ccccn3)cc(O)c2c1`, the GI50 in experiment [1] is 92.5 µM (inactive); in [2] it was 44.6 µM (inactive); in experiment [3], 26.7 µM (inactive); in experiment [4], 41.2 µM (inactive); in experiment [5], 28.8 µM (inactive); in experiment [6] it was 41.9 µM (inactive). In addition, the GI50 in [7] was 39.8 µM (inactive); in experiment [8] it was 30 µM (inactive); in experiment [9] it was 47 µM (inactive); in experiment [10], 32 µM (inactive); in experiment [11], 96.4 µM (inactive); in experiment [12], 50.7 µM (inactive). Besides, the GI50 in experiment [13] was 32.8 µM (inactive); in experiment [14] it was 18.4 µM (inactive).
Take `C/C=C(\CCOS(=O)(=O)c1ccc(C)cc1)[Si](C)(C)C`: the GI50 is > 100 µM (inactive) in experiment [1]; > 100 µM (inactive) in [15]; over 100 µM in [16]; > 100 µM (inactive) in experiment [2]; > 100 µM (inactive) in experiment [3]; > 100 µM (inactive) in experiment [4]. The GI50 in experiment [5], in experiment [6], in experiment [7], in experiment [17], in [8] and in experiment [18] was > 100 µM (inactive) in each case. The GI50 in experiment [9], in experiment [10], in experiment [11], in experiment [12], in experiment [13] and in experiment [14] was > 100 µM (inactive) in each case.
With `COC(=O)c1cc2c(c(C(=O)OC)c1O)C(=O)C=CC2=O`, the GI50 in experiment [1] is > 31.3 µM (inactive); in experiment [19], > 9.1 µM (inactive); in experiment [15] it was > 9.1 µM (inactive); in [16], 21.6 µM; in experiment [2] it was 24.1 µM (inactive); in [3] it was > 43.5 µM (inactive). For the same molecule, the GI50 in experiment [4] is 36.4 µM (inactive); in [6], > 31.6 µM (inactive); in experiment [7], > 21.4 µM (inactive); in [17], 27 µM (inactive); in experiment [8] it was > 41.6 µM (inactive); in experiment [18], 37.2 µM (inactive). For the same molecule, the GI50 in [9] was > 42.1 µM (inactive); in [11], > 39.4 µM (inactive); in experiment [12] it was > 32.8 µM (inactive); in [13], > 9.1 µM (inactive); in experiment [14] it was > 42.9 µM (inactive).
On to `O=C(CSc1nnc(-c2ccc(/N=C\c3ccc(Cl)cc3)cc2)o1)Nc1ccc(Cl)cc1`, for which the GI50 in experiment [1] is > 100 µM (inactive); in experiment [15], > 100 µM (inactive); in [16], over 100 µM; in experiment [3], > 100 µM (inactive); in experiment [4], > 100 µM (inactive); in experiment [5], > 100 µM (inactive). Besides, the GI50 in experiment [6], in experiment [7], in experiment [17], in experiment [18], in experiment [9] and in [10] was > 100 µM (inactive) in each case. Also, the GI50 in experiment [11], in [12], in [13] and in [14] was > 100 µM (inactive) each time.
For `CCOC12SC(Nc3ccc(C)cc3)=NN1C(=S)N(C)N=C2C` (stereo unspecified), the GI50 in [1] was > 100 µM (inactive); in experiment [15] it was > 100 µM (inactive); in [16], over 100 µM; in experiment [2], > 100 µM (inactive); in experiment [3], > 100 µM (inactive); in experiment [4], > 100 µM (inactive). For the same molecule, the GI50 in experiment [5], in experiment [6], in experiment [7], in [17], in [8] and in experiment [18] was > 100 µM (inactive) each time. Further, the GI50 in [9], in experiment [10], in [12] and in [13] was > 100 µM (inactive) each time.
On to `COc1cccc(NCC(=O)Nn2c(-c3ccccc3)nc3ccccc3c2=O)c1`, for which the GI50 was > 100 µM (inactive) in experiment [1]; > 100 µM (inactive) in experiment [15]; over 100 µM in experiment [16]; 64.4 µM (inactive) in experiment [2]; > 100 µM (inactive) in experiment [3]; > 100 µM (inactive) in experiment [4]. Also, the GI50 in experiment [5] is > 100 µM (inactive); in [6], > 100 µM (inactive); in experiment [7] it was > 100 µM (inactive); in experiment [17], > 100 µM (inactive); in [8], > 100 µM (inactive); in [18], 57.7 µM (inactive). Besides, the GI50 in experiment [9] is > 100 µM (inactive); in experiment [10], > 100 µM (inactive); in [11], > 100 µM (inactive); in experiment [12], > 100 µM (inactive); in experiment [13], 63.4 µM (inactive); in experiment [14] it was > 100 µM (inactive).
With `N#Cc1c2ccccc2cn1-c1ccc(F)cc1`, the GI50 in experiment [1] was 27.2 µM (inactive); in [19] it was 33 µM (inactive); in experiment [15] it was 16.8 µM (inactive); in [16] it was over 10 µM; in experiment [2], 67.6 µM (inactive); in experiment [3] it was 21.8 µM (inactive). Moreover, the GI50 in experiment [5] is 27.4 µM (inactive); in experiment [6] it was 17.7 µM (inactive); in experiment [7], > 10 µM (inactive); in [17] it was 23.5 µM (inactive); in experiment [8], 24.8 µM (inactive); in experiment [18], > 10 µM (inactive). Besides, the GI50 was 46.2 µM (inactive) in experiment [10]; 29 µM (inactive) in experiment [11]; 26.9 µM (inactive) in [12]; 30 µM (inactive) in experiment [13]; 8.59 µM (inactive) in [14].
For `O=[N+]([O-])c1ccc(OCc2nnc(CCCCCCCCc3nnc(COc4ccc([N+](=O)[O-])cc4)o3)o2)cc1`, the GI50 in experiment [1] was > 100 µM (inactive); in experiment [15], 77.6 µM (inactive); in experiment [16], over 100 µM; in experiment [2], > 100 µM (inactive); in experiment [3] it was 55.3 µM (inactive); in experiment [5], > 100 µM (inactive). In addition, the GI50 in experiment [6] is 81.5 µM (inactive); in [17], > 100 µM (inactive); in [18], > 100 µM (inactive); in [9], > 100 µM (inactive); in experiment [10], > 100 µM (inactive); in [11] it was > 100 µM (inactive). Also, the GI50 in [12], in experiment [13] and in [14] was > 100 µM (inactive) throughout.
Consider `[N-]=[N+]=NC1C(Br)C(=O)NC(=O)N1[C@H]1C[C@H](O)[C@@H](CO)O1` (stereo partly specified), for which the GI50 in [1], in experiment [2], in [3], in [4], in [5] and in [6] was > 100 µM (inactive) each time. Besides, the GI50 in experiment [7], in [17], in [8], in experiment [9], in [10] and in experiment [11] was > 100 µM (inactive) each time. In addition, the GI50 in [12], in experiment [13] and in experiment [14] was > 100 µM (inactive) in each case.

The values above are taken from ChEMBL document CHEMBL1201862, “PubChem BioAssay data set” (2004).
